# Columns and labels:
# [1] = test system: atrogin-1 protein; test: Atrogin-1 protein in myotubes by Western blotting; format: cell-based, mouse; conditions: for atrogin-1 protein expression: 30 μM compound
# Experimental: Western blotting: Cultured cells after treatment were collected at specific times and solubilized in RIPA lysis buffer (50 mM Tris-HCl, pH 7.4, 150 mM NaCl 1% NP-40, 0.5% sodium deoxycholate, 0.1% SDS (Boston Bioproducts)), protease (Roche) and phosphatase (Sigma) inhibitor cocktail). Proteins were separated by SDS-PAGE, transferred to PVDF membranes and visualized by Western blotting using alkaline phosphatase-based CDP-star chemiluminescent detection according to the manufacturer's protocol (Applied Biosystems). Polyclonal anti-atrogin-1 antibody was used as described in Bdolah et al. (Am. J. Physiol. Reg. Integr. Comp. Physiol. 292:R971-R976, 2007). Anti-actin and dynein antibodies were from Santa Cruz Biotechnology.
# [2] = test system: myotubes derived from atrogin-1 wildtype mice (+/+); test: Myotube diameter and morphology, myotubes from wildtype mice; format: cell-based, mouse; conditions: for fiber diameter in myotube culture: 2.5 μM compound alone
# Experimental: (§1) Myotube fiber size: Size was quantified by measuring a total of 200 tube diameters as described in Sandri et al. (Cell 117:399-412, 2004). Briefly, muscle fiber size from four random fields at 100-fold magnification was measured using IMAGE software (Scion). All data were expressed as the mean +/− S.E.M.
# [3] = test system: atrogin-1 mRNA; test: Atrogin-1 mRNA level in myotubes by real-time PCR; format: cell-based, mouse; conditions: for atrogin-1 mRNA expression: 30 μM compound; for atrogin-1 expression in myotube culture: 2.5 μM compound alone, mRNA and protein (FIGS. 7C-7D)
# [4] = test system: zebrafish embryos; test: Zebrafish embryo myofiber damage, myosin heavy chain staining; conditions: for fiber diameter in zebrafish embryos: 2.5 μM compound alone
# Experimental: Zebrafish lines and maintenance: Adult zebrafish (Danio rerio) were maintained as described under standard laboratory conditions at 28.5° C. in a 14 hour light/10 hour dark cycle (Westerfield, in Institute of Neuroscience University of Oregon, Eugene, Oreg.). Developmental stages were determined by embryo morphology and hours post fertilization (hpf) (Kimmel et al., Dev. Dyn. 203:253-310, 1995). To examine the effects of lovastatin, the embryos at 20-24 hpf were immersed in the embryonic water (500 μM NaCl, 170 μM KCl, 330 μM CaCl2, and 330 μM MgSO4) at a concentration of 0.005-10 μM lovastatin (mevinolin) (Sigma) including 0.003% 1-phenyl-2-thiourea (Sigma) to inhibit pigmentation in a 24-well plate. After 32 hpf, the embryos were fixed by 4% paraformaldehyde in PBS.
# Whole zebrafish antibody staining: Zebrafish embryos were fixed by 4% paraformaldehyde in PBS overnight. After fixation, the embryos were washed by PBS and stored for at least 1 hour at −20° C. in methanol, and permeabilized for 30 minutes at −20° C. in acetone. Embryos were incubated with blocking buffer (1% BSA, 0.1% Tween-20 in PBS), and incubated with diluted primary antibody, anti-slow twitch myosin F59 (1:100; Developmental Studies Hybridoma Bank (DSHB), Department of Biological Sciences, University of Iowa) (Crow et al., Dev. Biol. 118:333-342, 1986; Devoto et al., Development 122:3371-3380, 1996) in blocking solution for overnight at 4° C. Staining was detected by using Alexa Fluor(R) 594 goat anti-mouse IgG (H+L) (1:200; Invitrogen) in blocking solution for 4 hours at room temperature (Birely et al., Dev. Biol. 280:162-176, 2005).
# [5] = test system: myotubes derived from atrogin-1 knockout mice (−/−); test: Myotube diameter and morphology, myotubes from atrogin-1 knockout mice; format: cell-based, mouse
# Experimental: as §1
# [6] = test system: zebrafish atrogin-1; test: Zebrafish atrogin-1 protein by Western blotting; format: in vivo, zebrafish (Danio rerio); conditions: 12 hours; for atrogin-1 expression in zebrafish embryos: 2.5 μM compound alone
# Experimental: Western blotting: Zebrafish embryos were homogenized in SDS sample buffer (30 embryos/30 μL of sample buffer) with microfuge pestle until the lysate became uniform in consistency and there was no longer stringy. The lysate was boiled for 5 minutes and centrifuged supernatant was processed for Western blotting (Hanai et al., J. Cell Biol. 158:529-539, 2002). […] (GAPDH) antibody was from Santa Cruz Biotechnology.
# [7] = lovastatin 24 hours, wildtype cultures
# [8] = perillyl alcohol 1.0 mM for 24 hours, wildtype myotubes
# [9] = 2.5 μM compound with lovastatin, 24 hours, myotube culture
# [10] = mevalonate 100 μM + lovastatin 1 μM, 24 hours
compound,measurement,setting,value
"CC(=O)N[C@@H](CSC/C=C(\C)CC/C=C(\C)CCC=C(C)C)C(=O)O [AFC, N-acetyl-S-farnesyl-L-cysteine]",atrogin-1 protein expression,[1]; 24 hours,no effect
same,myotube diameter / myotube integrity,"[2]; 30 μM compound, 24 hours, wildtype myotubes",no effect
same,atrogin-1 mRNA expression,[3]; 24 hours,no effect
CC[C@H](C)C(=O)O[C@H]1C[C@@H](C)C=C2C=C[C@H](C)[C@H](CC[C@@H]3C[C@@H](O)CC(=O)O3)[C@H]21 [lovastatin],"muscle phenotypes (longitudinal muscle fiber staining, myosin heavy chain antibody)","[4]; lovastatin alone, zebrafish in vivo model",clear dose-dependent muscle phenotypes
same,"lovastatin concentration giving class 2 changes (fiber thinning, attenuation of MHC staining)","[4]; zebrafish embryos, higher concentrations",0.05 to 0.5 µM
same,"lovastatin concentration giving class 1 changes (bowing, gap formation, fiber disruption)","[4]; zebrafish embryos, low concentration",0.025 to 0.05 µM
same,lovastatin concentration giving class 3 changes (irregular somite boundries),"[4]; zebrafish embryos, maximal concentration",1.0 to 5.0 µM
same,atrogin-1 protein levels,[1]; [7],dose-dependent increase
same,myotube diameter,"[2]; 0.5 to 1.0 μM lovastatin for 24 hours, wildtype myotubes",dose-dependent reduction in myotube diameter
same,myotube diameter,"[5]; 0.5 to 1.0 μM lovastatin for 24 hours, atrogin-1 knockout cultures",resistant to lovastatin-induced reduction in myotube diameter
same,atrogin-1 mRNA levels,[3]; [7],dose-dependent increase
"C=C(C)[C@@H]1CC=C(CO)CC1 [Perillyl alcohol, perillyl alcohol]",muscle fibers in zebrafish embryos,[4]; 0.1 to 1.0 mM perillyl alcohol for 12 hours,dramatic thinning of muscle fibers and morphologic damage
same,atrogin-1 protein levels,[1]; [8],induction
same,damage of myotubes,[2]; [8],marked damage
same,atrogin-1 mRNA levels,[3]; [8],induction
CC(C)=CCC/C(C)=C/CC/C(C)=C/CC/C(C)=C/CO [geranylgeranol],fiber diameter in zebrafish embryos,[4]; 12 hours,neither 2.5 μM farnesol nor 2.5 μM geranylgeranol alone had any effect
same,fiber damage in zebrafish embryos,"[4]; 2.5 μM compound with lovastatin, 12 hours",reduced the degree
same,degree of atrogin-1 protein induction,[1]; [9],reduced the degree
same,fiber diameter in myotube culture,[2]; 24 hours,neither 2.5 μM farnesol nor 2.5 μM geranylgeranol alone had any effect
same,fiber damage in myotube culture,"[2]; 2.5 μM compound with lovastatin, 24 hours",reduced the degree
same,atrogin-1 expression in zebrafish embryos,[6],neither 2.5 μM farnesol nor 2.5 μM geranylgeranol alone had any effect
same,degree of atrogin-1 induction in zebrafish embryos,[6]; 2.5 μM compound with lovastatin,reduced the degree
same,atrogin-1 expression in myotube culture,[3]; 24 hours,neither 2.5 μM farnesol nor 2.5 μM geranylgeranol alone had any effect
same,degree of atrogin-1 mRNA induction,[3]; [9],reduced the degree
"CC(=O)N[C@@H](CSC/C=C(\C)CC/C=C(\C)CC/C=C(\C)CCC=C(C)C)C(=O)O [AGGC, N-acetyl-S-geranylgeranyl-L-cysteine]",atrogin-1 protein expression,[1]; 24 hours,induction
same,effect on myotubes,"[5]; 30 μM AGGC, 24 hours, atrogin-1 knockout myotubes",resistant to this reagent
same,atrogin-1 mRNA expression,[3]; 24 hours,induction
CC(C)=CCCC(C)=CCCC(C)=CCO [farnesol],fiber diameter in zebrafish embryos,[4]; 12 hours,neither 2.5 μM farnesol nor 2.5 μM geranylgeranol alone had any effect
same,fiber diameter in myotube culture,[2]; 24 hours,neither 2.5 μM farnesol nor 2.5 μM geranylgeranol alone had any effect
same,atrogin-1 expression in zebrafish embryos,[6],neither 2.5 μM farnesol nor 2.5 μM geranylgeranol alone had any effect
same,atrogin-1 expression in myotube culture,[3]; 24 hours,neither 2.5 μM farnesol nor 2.5 μM geranylgeranol alone had any effect
CC(O)(CCO)CC(=O)O (stereo not shown) [mevalonate],development of zebrafish myofiber damage,"[4]; 100 μM mevalonate + 0.05 to 1.0 μM lovastatin, 12 hours",completely prevented
same,atrogin-1 protein induction caused by lovastatin,[1]; [10],completely prevented
same,reduction of myotube diameter caused by lovastatin,[2]; [10],completely prevented
same,effect on the muscle cultures when administered alone,"[2]; mevalonate 100 μM alone, 24 hours",no effect
same,zebrafish atrogin-1 induction,[6]; 100 μM mevalonate + 0.05 to 1.0 μM lovastatin,completely prevented
same,atrogin-1 mRNA induction caused by lovastatin,[3]; [10],completely prevented

# From patent US20120171286A1, “METHODS AND COMPOSITIONS FOR THE TREATMENT AND DIAGNOSIS OF STATIN-INDUCED MYOPATHY” (Beth Isreal Deaconess Medical Center, priority 2009, published 2012)
